Results on one molecule are retold here after PMC5098229, “A Novel Non-Peptidic Agonist of the Ghrelin Receptor with Orexigenic Activity In vivo” (Scientific Reports, 2016).

The target in the test is T1, GHS-R1a receptor (ghrelin receptor) (Homo sapiens, UniProt Q92847).
T1 construct: gene GHSR; human GHS-R1a with C-terminal EGFP tag, stably expressed in Hek293a cells
Nature of the test: calcium mobilisation in Hek-GHS-R1a-EGFP cells; no response in wild-type Hek or 5-HT2C cells; reduced by JMV2959. The test is classed as cell-based. For orientation: Calcium flux is commonly read through the fluorescence of an indicator in the cells.

T1 sequence (Q92847 whole entry): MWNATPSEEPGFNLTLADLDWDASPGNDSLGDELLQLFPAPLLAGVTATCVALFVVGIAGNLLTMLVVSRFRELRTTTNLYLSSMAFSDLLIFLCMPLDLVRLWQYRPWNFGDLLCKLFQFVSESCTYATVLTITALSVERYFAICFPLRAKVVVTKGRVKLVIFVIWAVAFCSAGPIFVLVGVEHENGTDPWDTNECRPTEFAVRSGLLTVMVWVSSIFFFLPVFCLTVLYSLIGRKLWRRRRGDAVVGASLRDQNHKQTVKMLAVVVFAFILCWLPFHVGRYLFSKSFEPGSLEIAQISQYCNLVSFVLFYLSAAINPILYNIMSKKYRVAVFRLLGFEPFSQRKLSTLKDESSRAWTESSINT

One may read the EC50 as the concentration giving half of the maximal effect. With `COc1cc(C)n(C)c(=O)c1C(F)(F)F` [compound 8, 4-Methoxy-1,6-dimethyl-3-(trifluoromethyl)pyridin-2(1H)-one], the EC50 came out at 3.1 µM.
